{
  "source": "patent US20070041944A1",
  "about": "“Treating tumors by ENH dislocation of ID proteins” (THE TRUSTEES OF COLUMBIA UNIVERSITY IN THE CITY OF NEW YORK, priority 2005, published 2007)",
  "molecules": {"B1": {"name": "C-terminal fragment of ENH (amino acids 461-596) of the two two-hybrid clones (other)", "chain": "EKGALYCELCYEKFFAPECGRCQRKILGEVINALKQTWHVSCFVCVACGKPIRNNVFHLEDGEPYCETDYYALFGTICHGCEFPIEAGDMFLEALGYTWHDTCFVCSVCCESLEGQTFFSKKDKPLCKKHAHSVNF", "notes": "Prey clones from a human fetal brain cDNA library in pPC86; also called ENH clones"}},
  "key": {"[1]": {"tested_on": "SH-N and SH-F cells", "assay": "Cell-cycle exit of neuroblastoma cells treated with RA", "type": "cell-based, human", "details": "RA 0.1 μM", "excerpt": "Human neuroblastoma cells are frequently used as in vitro models to recapitulate differentiation of the nervous system. To ask whether ENH expression is regulated during differentiation of the nervous system, clonal derivatives of the human neuroblastoma cell line SK-N-SH, the SK-N-SH-N (SH-N) and SK-N-SH-F (SH-F) cells were used. These cells, which lack N-myc gene amplification, have been used to characterize the cell-cycle exit associated with differentiation of neural cells. When treated with a low concentration of RA (0.1 μM) SH-N cells undergo differentiation along the neuronal lineage, whereas SH-F cells acquire an epithelioid morphology and rapidly enter into a senescent-like state. Both cell types arrest in the G1 phase of the cell cycle within 48 h of treatment with RA. […] Although higher concentrations of RA led to marked inhibition of N-myc and Id2 gene expression in N-myc-amplified neuroblastoma cells, it was noted that RA at the concentration of 0.1 μM caused little change of Id2 expression in the SK-N-SH derivatives. However, a late decrease of Id2 protein was evident in RA-treated SH-N cells (FIG. 3D)."}, "[2]": {"tested_on": "Flag-Id2 in SK-N-SH cells", "assay": "Quantitative analysis of subcellular localization of Flag-Id2 after RA (double immunofluorescence)", "type": "cell-based, human", "details": "48 h, SK-N-SH expressing Flag-Id2, three independent experiments", "description": "Quantitative Analysis of Subcellular Localization of Id2 and siRNA Experiments: SK-N-SH-Flag-Id2 cells untreated or treated with RA for 48 h were fixed in 4% paraformaldehyde. Flag-Id2 and endogenous ENH were immunostained by using Flag-M2 (Sigma) and ENH antibodies, respectively. SK-N-SH cells were transfected with vector or p3XFlag-ENH and immunostained by using Flag-M2 and Id2 (Zymed) antibodies. For silencing of ENH, ENH siRNA (siGenome Smartpool reagent M-006930-00) and control, nontargeting (siGenome Smartpool reagent D-001206-13) siRNA mixtures were purchased from Dharmacon. SK-N-SH cells stably expressing Flag-Id2 were treated with vehicle control or RA for 48 h and transfected with 60 nM siRNAs by using Lipofectamine 2000 (Invitrogen). Thirty-six hours after transfection cells were fixed in 4% paraformaldehyde and immunostained by using Flag-M2 antibodies. Parallel cultures were analyzed by Western blot. Secondary antibodies were FITC- or Cy3-conjugated anti-rabbit and Cy3-conjugated anti-mouse (Jackson ImmunoResearch). Nuclei were counterstained with DAPI. Slides were mounted in 90% glycerol in PBS and analyzed on an Olympus epifluorescence microscope. The percentage of cells displaying Id2 staining in the nucleus was scored by counting at least 500 cells from triplicate samples. […]"}, "[3]": {"biological_target": "Flag-Id2", "assay": "cell-based or functional assay"}, "[4]": {"biological_target": "T1, full length Id2 as bait (entire coding sequence of human Id2 in bait plasmid pDBLeu) (human, UniProt Q02363 1-134)", "T1 construct": "Yeast two-hybrid bait (Proquest system, pDBLeu); also called Id2 bait", "T1 sequence (looked up)": "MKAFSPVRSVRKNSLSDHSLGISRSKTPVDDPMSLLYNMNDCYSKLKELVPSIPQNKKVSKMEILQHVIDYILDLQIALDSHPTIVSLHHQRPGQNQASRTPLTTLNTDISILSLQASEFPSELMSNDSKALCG", "assay": "yeast two-hybrid screen of a human fetal brain cDNA library", "description": "Yeast Two-Hybrid Screening: The Proquest system (Invitrogen Life Technologies, Carlsbad, Calif.) was used for yeast two-hybrid screening. The entire coding sequence of human Id2 was subcloned into the bait plasmid pDBLeu. A human fetal brain cDNA library in pPC86 was transformed into MaV203 yeast cells and screened for interactors with the bait plasmid according to the manufacturer's protocol.\nTo identify new interactors of Id2 from the nervous system, a yeast two-hybrid screen was conducted with a human fetal brain cDNA library using full length Id2 as bait. This screen yielded 47 validated cDNA clones corresponding to four different Id2-associated proteins. Among them, 24 clones code for Id2, 13 clones code for the bHLH transcription factor E2-2, eight clones code for the bHLH transcription factor HEB, and two clones code for the PDZ-LIM protein ENH. All Id2 and bHLH clones retain an intact HLH domain. This finding is consistent with the essential role of the HLH domain for heterodimerization. The presence of endogenous Id2 is explained by the strong homodimerization ability of Id2 and its abundant expression in the fetal brain."}},
  "data": [
    {"molecule": "CC1=C(/C=C/C(C)=C/C=C/C(C)=C/C(=O)O)C(C)(C)CCC1", "note": "[RA, retinoic acid]", "values": [
      {"measurement": "time to arrest in the G1 phase of the cell cycle", "setting": "[1]", "result": "≤ 48", "unit": "h"},
      {"measurement": "cells with Flag-Id2 relocated to the cytoplasm", "setting": "[2]; ENH positive cells after RA", "result": "~60", "unit": "%"},
      {"measurement": "cells with Flag-Id2 relocated to the cytoplasm", "setting": "[2]; ENH-negative cells after RA", "result": 10, "unit": "%"}
    ]},
    {"molecule": "endogenous ENH from RA-treated SK-N-SH neuroblastoma cells (from UniProt Q96HC4 2-596)", "values": [
      {"measurement": "percentage of cells with cytoplasmic Flag-Id2 after RA treatment (double immunofluorescence)", "setting": "[3]", "result": 60, "unit": "%"}
    ]},
    {"molecule": "B1", "values": [
      {"measurement": "binding result", "setting": "[4]", "result": "binds"}
    ]}
  ]
}
